Experimental data from paper PMC4631615 (Bipolar disorders, 2015).
Where “and” joins values, the source holds several entries; their conditions need not be identical. Identical values can stand only once. Marks after values point to notes of the source that are not given here.

Experiments:
NMRI mice = details: injected on GD 8 with 3 mmol/kg; cited from earlier work
pregnant SWV mice [1] = assay: Maternal body weight and weight gain, teratogenicity study; assay type: in vivo, mouse; details: mean ± SD
pregnant SWV mice [2] = assay: Pregnancy outcomes; assay type: in vivo, mouse
SWV mouse fetuses [3] = assay: Skeletal examination of fetuses; assay type: in vivo
SWV mouse fetuses [4] = details: for Overall teratogenicity under the experimental conditions: SWV mice, p.o. GD 4–17, doses as fractions of LD50
mouse = details: source not given; cited from earlier work
[5] = 1/4.36 of LD50 (RIS 14.5, VCD 229.2 mg/kg) p.o. GD 4–17
[6] = 1/6.54 of LD50 (RIS 9.6, OLA 32.1, VCD 152.8 mg/kg) p.o. GD 4–17
[7] = 1/6.54 of LD50 (RIS 9.6, OLA 32.1, VCD 152.8 mg/kg) p.o. GD 4–17, mean ± SD
[8] = 1/13.1 of LD50 (OLA 16.05 mg/kg) p.o. GD 4–17

CCCC(CCC)C(=O)O [VPA, valproic acid]
Exposed fetuses with exencephaly (NMRI mice): 52%
Resorption rate (NMRI mice): 53%

Cc1nc2n(c(=O)c1CCN1CCC(c3noc4cc(F)ccc34)CC1)CCCC2 [RIS, 3-(2-(4-(6-fluoro-1,2-benzisoxazol-3-yl)piperidino)ethyl)-6,7,8,9-tetrahydro-2-methyl-4H-pyrido(1,2-a)pyrimidin-4-one]
Dams net weight gain (pregnant SWV mice [1]; [5]): 7.4 ± 2.3 ^a grams
Dams weight GD 18 (pregnant SWV mice [1]; [5]): 47.1 ± 3.2 grams
Dams weight gain (pregnant SWV mice [1]; [5]): 18.1 grams and 18.1 ± 2.5 ^a grams
Dams net weight gain (pregnant SWV mice [1]; [6]): 7.5 ± 2.0 grams
Dams weight GD 18 (pregnant SWV mice [1]; [6]): 46.9 ± 4.8 grams
Dams weight gain (pregnant SWV mice [1]; [6]): 19.4 ± 4.2 grams
Resorption rate (pregnant SWV mice [2]; 1/4.36 of LD50 (RIS 14.5 mg/kg) p.o. GD 4–17): 12.4%
Fetus weight (pregnant SWV mice [2]; 1/4.36 of LD50 (RIS 14.5, VCD 229.2 mg/kg) p.o. GD 4–17, mean ± SD): 0.83 ± 0.05 ^a g
Fetus weight (pregnant SWV mice [2]; [7]): 0.89 ± 0.06 g
All vertebra: incomplete ossification, affected fetuses (SWV mouse fetuses [3]; [5]): 0
Cervical vertebra: ossified fusion of centrums, affected fetuses (SWV mouse fetuses [3]; [5]): 0
Fetuses with skeletal abnormalities, % (SWV mouse fetuses [3]; [5]): 20.1%
Fibula: bent, affected fetuses (SWV mouse fetuses [3]; [5]): 0
Metacarpal: absent ossification, affected fetuses (SWV mouse fetuses [3]; [5]): 6
Metacarpal: absent ossification, affected litters (SWV mouse fetuses [3]; [5]): 1
Metacarpal: incomplete ossification, affected fetuses (SWV mouse fetuses [3]; [5]): 0
Metatarsal: absent ossification, affected fetuses (SWV mouse fetuses [3]; [5]): 6
Metatarsal: absent ossification, affected litters (SWV mouse fetuses [3]; [5]): 1
Metatarsal: incomplete ossification, affected fetuses (SWV mouse fetuses [3]; [5]): 0
Ribs: absent 13th, affected fetuses (SWV mouse fetuses [3]; [5]): 0
Ribs: branched, affected fetuses (SWV mouse fetuses [3]; [5]): 0
Skull: incomplete ossification, affected fetuses (SWV mouse fetuses [3]; [5]): 6
Skull: incomplete ossification, affected litters (SWV mouse fetuses [3]; [5]): 1
Skull: interparietal incomplete ossification, affected fetuses (SWV mouse fetuses [3]; [5]): 0
Skull: parietal incomplete ossification, affected fetuses (SWV mouse fetuses [3]; [5]): 1/1
Skull: parietal incomplete ossification, affected litters (SWV mouse fetuses [3]; [5]): 1/1
Skull: supraoccipital incomplete ossification, affected fetuses (SWV mouse fetuses [3]; [5]): 0
Sternebra: absent ossification, affected fetuses (SWV mouse fetuses [3]; [5]): 7
Sternebra: absent ossification, affected litters (SWV mouse fetuses [3]; [5]): 2
Sternebra: incomplete ossification, affected fetuses (SWV mouse fetuses [3]; [5]): 13
Sternebra: incomplete ossification, affected litters (SWV mouse fetuses [3]; [5]): 9
Sternebra: misaligned, affected fetuses (SWV mouse fetuses [3]; [5]): 0
Sternebra: misshapen, affected fetuses (SWV mouse fetuses [3]; [5]): 1/1
Sternebra: misshapen, affected litters (SWV mouse fetuses [3]; [5]): 1/1
Whole skeletal system: incomplete ossification, affected fetuses (SWV mouse fetuses [3]; [5]): 2
Whole skeletal system: incomplete ossification, affected litters (SWV mouse fetuses [3]; [5]): 1
All vertebra: incomplete ossification, affected fetuses (SWV mouse fetuses [3]; [6]): 0
Cervical vertebra: ossified fusion of centrums, affected fetuses (SWV mouse fetuses [3]; [6]): 0
Fetuses with skeletal abnormalities, % (SWV mouse fetuses [3]; [6]): 10.8%
Fibula: bent, affected fetuses (SWV mouse fetuses [3]; [6]): 0
Metacarpal: absent ossification, affected fetuses (SWV mouse fetuses [3]; [6]): 0
Metacarpal: incomplete ossification, affected fetuses (SWV mouse fetuses [3]; [6]): 1/1
Metacarpal: incomplete ossification, affected litters (SWV mouse fetuses [3]; [6]): 1/1
Metatarsal: absent ossification, affected fetuses (SWV mouse fetuses [3]; [6]): 0
Metatarsal: incomplete ossification, affected fetuses (SWV mouse fetuses [3]; [6]): 1/1
Metatarsal: incomplete ossification, affected litters (SWV mouse fetuses [3]; [6]): 1/1
Ribs: absent 13th, affected fetuses (SWV mouse fetuses [3]; [6]): 0
Ribs: branched, affected fetuses (SWV mouse fetuses [3]; [6]): 0
Skull: incomplete ossification, affected fetuses (SWV mouse fetuses [3]; [6]): 3
Skull: incomplete ossification, affected litters (SWV mouse fetuses [3]; [6]): 2
Skull: interparietal incomplete ossification, affected fetuses (SWV mouse fetuses [3]; [6]): 0
Skull: parietal incomplete ossification, affected fetuses (SWV mouse fetuses [3]; [6]): 0
Skull: supraoccipital incomplete ossification, affected fetuses (SWV mouse fetuses [3]; [6]): 0
Sternebra: absent ossification, affected fetuses (SWV mouse fetuses [3]; [6]): 0
Sternebra: incomplete ossification, affected fetuses (SWV mouse fetuses [3]; [6]): 5
Sternebra: incomplete ossification, affected litters (SWV mouse fetuses [3]; [6]): 4
Sternebra: misaligned, affected fetuses (SWV mouse fetuses [3]; [6]): 0
Sternebra: misshapen, affected fetuses (SWV mouse fetuses [3]; [6]): 3/3
Sternebra: misshapen, affected litters (SWV mouse fetuses [3]; [6]): 3/3
Whole skeletal system: incomplete ossification, affected fetuses (SWV mouse fetuses [3]; [6]): 1/1
Whole skeletal system: incomplete ossification, affected litters (SWV mouse fetuses [3]; [6]): 1/1
Overall teratogenicity under the experimental conditions (SWV mouse fetuses [4]): maternal-, embryo-, and fetotoxic
Cleft palate, affected fetuses (SWV mouse fetuses [4]; female, SWV, mouse, in vivo): 8
Dilated brain ventricles, affected litters (SWV mouse fetuses [4]; female, SWV, mouse, in vivo): 2/2
Exencephaly, affected litters (SWV mouse fetuses [4]; female, SWV, mouse, in vivo): 1/1
Fetuses with external abnormalities, % (SWV mouse fetuses [4]; female, SWV, mouse, in vivo): 0.4%
Malposition stomach, affected fetuses (SWV mouse fetuses [4]; female, SWV, mouse, in vivo): 0
Right aortic arch, affected fetuses (SWV mouse fetuses [4]; female, SWV, mouse, in vivo): 0
LD50 mouse, oral (mouse): 63 mg/kg

Cc1cc2c(s1)Nc1ccccc1N=C2N1CCN(C)CC1 [OLA, 2-methyl-4-(4-methyl-1-piperazinyl)-10H-thieno(2,3-b)([1],[5])benzodiazepine]
Dams net weight gain (pregnant SWV mice [1]; [6]): 5.6 ± 2.0 ^a grams
Dams weight GD 18 (pregnant SWV mice [1]; [6]): 34.9 grams and 34.9 ± 4.0 ^a grams
Dams weight gain (pregnant SWV mice [1]; [6]): 8.0 ± 3.5 ^a grams
Dams net weight gain (pregnant SWV mice [1]; [8]): 8.8 ± 1.8 grams
Dams weight GD 18 (pregnant SWV mice [1]; [8]): 46.5 ± 3.6 grams
Dams weight gain (pregnant SWV mice [1]; [8]): 18.7 ± 3.8 grams
Fetus weight (pregnant SWV mice [2]; [7]): 0.66 ± 0.09 ^a g
Resorptions/litter (pregnant SWV mice [2]; [7]): 9.6 ± 3.9 ^a
Fetus weight (pregnant SWV mice [2]; 1/13.1 of LD50 (OLA 16.05 mg/kg) p.o. GD 4–17, mean ± SD): 0.83 ± 0.10 ^a g
Embryos resorbed (pregnant SWV mice [2]; 1/13.1 of LD50 (OLA 16.05 mg/kg, low dose) p.o. GD 4–17): 15%
All vertebra: incomplete ossification, affected fetuses (SWV mouse fetuses [3]; [6]): 3
All vertebra: incomplete ossification, affected litters (SWV mouse fetuses [3]; [6]): 1
Cervical vertebra: ossified fusion of centrums, affected fetuses (SWV mouse fetuses [3]; [6]): 0
Fetuses with skeletal abnormalities, % (SWV mouse fetuses [3]; [6]): 79.2%
Fibula: bent, affected fetuses (SWV mouse fetuses [3]; [6]): 0
Metacarpal: absent ossification, affected fetuses (SWV mouse fetuses [3]; [6]): 12
Metacarpal: absent ossification, affected litters (SWV mouse fetuses [3]; [6]): 8
Metacarpal: incomplete ossification, affected fetuses (SWV mouse fetuses [3]; [6]): 6
Metacarpal: incomplete ossification, affected litters (SWV mouse fetuses [3]; [6]): 3
Metatarsal: absent ossification, affected fetuses (SWV mouse fetuses [3]; [6]): 14
Metatarsal: absent ossification, affected litters (SWV mouse fetuses [3]; [6]): 9
Metatarsal: incomplete ossification, affected fetuses (SWV mouse fetuses [3]; [6]): 4
Metatarsal: incomplete ossification, affected litters (SWV mouse fetuses [3]; [6]): 3
Ribs: absent 13th, affected fetuses (SWV mouse fetuses [3]; [6]): 1/1
Ribs: absent 13th, affected litters (SWV mouse fetuses [3]; [6]): 1/1
Ribs: branched, affected fetuses (SWV mouse fetuses [3]; [6]): 0
Skull: incomplete ossification, affected fetuses (SWV mouse fetuses [3]; [6]): 1/1
Skull: incomplete ossification, affected litters (SWV mouse fetuses [3]; [6]): 1/1
Skull: interparietal incomplete ossification, affected fetuses (SWV mouse fetuses [3]; [6]): 1/1
Skull: interparietal incomplete ossification, affected litters (SWV mouse fetuses [3]; [6]): 1/1
Skull: parietal incomplete ossification, affected fetuses (SWV mouse fetuses [3]; [6]): 0
Skull: supraoccipital incomplete ossification, affected fetuses (SWV mouse fetuses [3]; [6]): 1/1
Skull: supraoccipital incomplete ossification, affected litters (SWV mouse fetuses [3]; [6]): 1/1
Sternebra: absent ossification, affected fetuses (SWV mouse fetuses [3]; [6]): 8
Sternebra: absent ossification, affected litters (SWV mouse fetuses [3]; [6]): 5
Sternebra: incomplete ossification, affected fetuses (SWV mouse fetuses [3]; [6]): 8
Sternebra: incomplete ossification, affected litters (SWV mouse fetuses [3]; [6]): 7
Sternebra: misaligned, affected fetuses (SWV mouse fetuses [3]; [6]): 0
Sternebra: misshapen, affected fetuses (SWV mouse fetuses [3]; [6]): 0
Whole skeletal system: incomplete ossification, affected fetuses (SWV mouse fetuses [3]; [6]): 7
Whole skeletal system: incomplete ossification, affected litters (SWV mouse fetuses [3]; [6]): 3
All vertebra: incomplete ossification, affected fetuses (SWV mouse fetuses [3]; [8]): 0
Cervical vertebra: ossified fusion of centrums, affected fetuses (SWV mouse fetuses [3]; [8]): 0
Fibula: bent, affected fetuses (SWV mouse fetuses [3]; [8]): 0
Metacarpal: absent ossification, affected fetuses (SWV mouse fetuses [3]; [8]): 1/1
Metacarpal: absent ossification, affected litters (SWV mouse fetuses [3]; [8]): 1/1
Metacarpal: incomplete ossification, affected fetuses (SWV mouse fetuses [3]; [8]): 47
Metacarpal: incomplete ossification, affected litters (SWV mouse fetuses [3]; [8]): 12
Metatarsal: absent ossification, affected fetuses (SWV mouse fetuses [3]; [8]): 8/8 ^b
Metatarsal: absent ossification, affected litters (SWV mouse fetuses [3]; [8]): 8/8 ^b
Metatarsal: incomplete ossification, affected fetuses (SWV mouse fetuses [3]; [8]): 20
Metatarsal: incomplete ossification, affected litters (SWV mouse fetuses [3]; [8]): 8
Ribs: absent 13th, affected fetuses (SWV mouse fetuses [3]; [8]): 0
Ribs: branched, affected fetuses (SWV mouse fetuses [3]; [8]): 0
Skull: incomplete ossification, affected fetuses (SWV mouse fetuses [3]; [8]): 0
Skull: interparietal incomplete ossification, affected fetuses (SWV mouse fetuses [3]; [8]): 4
Skull: interparietal incomplete ossification, affected litters (SWV mouse fetuses [3]; [8]): 3
Skull: parietal incomplete ossification, affected fetuses (SWV mouse fetuses [3]; [8]): 3
Skull: parietal incomplete ossification, affected litters (SWV mouse fetuses [3]; [8]): 2
Skull: supraoccipital incomplete ossification, affected fetuses (SWV mouse fetuses [3]; [8]): 1/1
Skull: supraoccipital incomplete ossification, affected litters (SWV mouse fetuses [3]; [8]): 1/1
Sternebra: absent ossification, affected fetuses (SWV mouse fetuses [3]; [8]): 4/4
Sternebra: absent ossification, affected litters (SWV mouse fetuses [3]; [8]): 4/4
Sternebra: incomplete ossification, affected fetuses (SWV mouse fetuses [3]; [8]): 25
Sternebra: incomplete ossification, affected litters (SWV mouse fetuses [3]; [8]): 11
Sternebra: misaligned, affected fetuses (SWV mouse fetuses [3]; [8]): 0
Sternebra: misshapen, affected fetuses (SWV mouse fetuses [3]; [8]): 0
Whole skeletal system: incomplete ossification, affected fetuses (SWV mouse fetuses [3]; [8]): 0
Overall teratogenicity under the experimental conditions (SWV mouse fetuses [4]): the most teratogenic of the three test drugs
Dilated brain ventricles, affected litters (SWV mouse fetuses [4]; female, SWV, mouse, in vivo): 2/2
Dilated renal pelvis, affected litters (SWV mouse fetuses [4]; female, SWV, mouse, in vivo): 2/2
Exencephaly, affected fetuses (SWV mouse fetuses [4]; female, SWV, mouse, in vivo): 0
Malposition stomach, affected fetuses (SWV mouse fetuses [4]; female, SWV, mouse, in vivo): 0
Right aortic arch, affected fetuses (SWV mouse fetuses [4]; female, SWV, mouse, in vivo): 0
LD50 mouse, oral (mouse): 210 mg/kg
